Results on 31 compounds are retold here after patent US11401246B2, “Triazole glycolate oxidase inhibitors” (CANTERO THERAPEUTICS, INC., priority 2018, dated 2022).

The target in one assay is T1, human glycolate oxidase (hGO) (Homo sapiens, UniProt Q9UJM8).
T1 construct: His-tag (6 histidines, pET-15b) (N); made in house; host or cells: E. coli BL21 (DE3)
T1 sequence (Q9UJM8 1-370): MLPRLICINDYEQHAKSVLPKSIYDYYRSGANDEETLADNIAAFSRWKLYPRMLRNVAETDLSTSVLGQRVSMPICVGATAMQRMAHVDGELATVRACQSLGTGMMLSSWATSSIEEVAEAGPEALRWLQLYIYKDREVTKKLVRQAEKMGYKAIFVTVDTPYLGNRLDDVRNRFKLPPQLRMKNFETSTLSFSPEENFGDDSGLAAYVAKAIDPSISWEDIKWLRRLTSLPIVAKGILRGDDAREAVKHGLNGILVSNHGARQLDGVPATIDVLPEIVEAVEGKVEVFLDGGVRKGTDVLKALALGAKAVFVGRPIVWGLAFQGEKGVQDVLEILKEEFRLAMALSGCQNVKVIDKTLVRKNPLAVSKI
The assay is described as follows: In vitro inhibition of human glycolate oxidase (enzymatic assay, HRP-coupled Trinder reaction).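 On % Inhibition: values are IC50 potency bins despite the % Inhibition label.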 The assay is classed as biochemical.
Settings: not given
The gist of the method:
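Recombinant N-terminal His-tagged human GO from E. coli, Ni-NTA purified. Activity with 40 mM glycolate in 50 mM KPO4, 0.1 mM EDTA, pH 7; H2O2 formed quantified by HRP Trinder reaction (4-aminoantipyrine, sulphonated DCIP) as quinoneimine absorbance, 1 minute after Trinder initiation.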
In turn, `COc1ccc(Oc2[nH]nnc2C(=O)O)cc1` [Example 46, 5-(4-methoxyphenoxy)-1H-1,2,3-triazole-4-carboxylic Acid] gave an IC50 of less than 100 nM.

On to `Cc1cc(Oc2[nH]nnc2C(=O)O)ccc1Br` [Example 71, 5-(4-bromo-3-methylphenoxy)-1H-1,2,3-triazole-4-carboxylic Acid], for which the IC50 was less than 100 nM.

In the case of `O=C(O)c1nn[nH]c1Sc1ccc(Br)cc1` [Example 52, 5-((4-bromophenyl)thio)-1H-1,2,3-triazole-4-carboxylic Acid], the IC50 is 100 to 200 nM.

Regarding `COc1ccc(-c2ccc(Oc3[nH]nnc3C(=O)O)cc2)cc1` [Example 22, 5-((4′-methoxy-[1,1′-biphenyl]-4-yl)oxy)-1H-1,2,3-triazole-4-carboxylic Acid], the IC50 is 100 to 200 nM.

Compound `Cc1ccc(-c2ccc(Oc3[nH]nnc3C(=O)O)cc2)cc1` [Example 31, 5-((4′-methyl-[1,1′-biphenyl]-4-yl)oxy)-1H-1,2,3-triazole-4-carboxylic Acid] returned an IC50 of less than 100 nM.

Still in this assay, the particulars now being: recombinant hGO, 40 mM glycolic acid, pH 7, read at 515 nm, 1 minute after initiation of Trinder reaction; read-out: % Inhibition.
On to `O=C(O)c1nn[nH]c1Oc1ccc(-c2cncc3ccccc23)cc1` [Example 96, 5-(4-(isoquinolin-4-yl)phenoxy)-1H-1,2,3-triazole-4-carboxylic Acid], for which the IC50 is 100 to 200 nM.

For the compound `Cc1ccc(Oc2[nH]nnc2C(=O)O)cn1` [Example 54, 5-((6-methylpyridin-3-yl)oxy)-1H-1,2,3-triazole-4-carboxylic Acid], the IC50 was more than 200 nM.

Regarding `O=C(O)c1nn[nH]c1Oc1ccc(-c2ccc(-c3cccnc3)cc2)cc1` [Example 120, 5-[4[4-(3-pyridyl)phenyl]phenoxy]-1H-1,2,3-triazole-4-carboxylic Acid], the IC50 lay within 100 to 200 nM.

As for `O=C(O)c1nn[nH]c1Oc1ccc(N2CCOCC2)cc1` [Example 1, 5-(4-morpholinophenoxy)-1H-1,2,3-triazole-4-carboxylic Acid], the IC50 is more than 200 nM.

Take `CS(=O)(=O)Nc1ccc(-c2ccc(Oc3[nH]nnc3C(=O)O)cc2)cc1` [Example 102, 5-((4′-(methylsulfonamido)-[1,1′-biphenyl]-4-yl)oxy)-1H-1,2,3-triazole-4-carboxylic Acid]: the IC50 is less than 100 nM.

Take `N#Cc1ccc(Oc2[nH]nnc2C(=O)O)cc1` [Example 53, 5-(4-cyanophenoxy)-1H-1,2,3-triazole-4-carboxylic Acid]: the IC50 is less than 100 nM.

In the case of `O=C(O)c1nn[nH]c1Oc1ccc(-c2ccc(-c3ccc(OC(F)F)cc3)cc2)cc1` [Example 17, 5-((4″-(difluoromethoxy)-[1,1′:4′,1″-terphenyl]-4-yl)oxy)-1H-1,2,3-triazole-4-carboxylic Acid], the IC50 was more than 200 nM.

As for `CC1(c2ccc(-c3ccc(Oc4[nH]nnc4C(=O)O)cc3)cc2)CC1` [Example 122, 5-((4′-(1-methylcyclopropyl)-[1,1′-biphenyl]-4-yl)oxy)-1H-1,2,3-triazole-4-carboxylic Acid], the IC50 fell in the range of 100 to 200 nM.

For the compound `O=C(O)c1nn[nH]c1Oc1ccc(-c2ccc(OC(F)F)cc2)cc1` [Example 39, 5-((4′-(difluoromethoxy)-[1,1′-biphenyl]-4-yl)oxy)-1H-1,2,3-triazole-4-carboxylic Acid], the IC50 was in the range of 100 to 200 nM.

Consider `O=C(O)c1nn[nH]c1Oc1ccc(-c2cc(F)cnc2Cl)cc1` [Example 99, 5-(4-(2-chloro-5-fluoropyridin-3-yl)phenoxy)-1H-1,2,3-triazole-4-carboxylic Acid], for which the IC50 was less than 100 nM.

Turning to `CC(C)(C)c1ccc(-c2ccc(Oc3[nH]nnc3C(=O)O)c(F)c2)cc1` [Example 106, 5-((4′-(tert-butyl)-3-fluoro-[1,1′-biphenyl]-4-yl)oxy)-1H-1,2,3-triazole-4-carboxylic Acid], the IC50 was 100 to 200 nM.

Take `O=C(O)c1nn[nH]c1Oc1ccc(-c2cccnc2Cl)cc1` [Example 93, 5-(4-(2-chloropyridin-3-yl)phenoxy)-1H-1,2,3-triazole-4-carboxylic Acid]: the IC50 was less than 100 nM.

`CC(C)c1ccc(-c2ccc(Sc3[nH]nnc3C(=O)O)cc2)cc1` [Example 113, 5-((4′-isopropyl-[1,1′-biphenyl]-4-yl)thio)-1H-1,2,3-triazole-4-carboxylic Acid]: the IC50 fell in the range of 100 to 200 nM.

For the compound `O=C(O)c1nn[nH]c1Oc1ccc(-c2ncco2)cc1` [Example 26, 5-(4-(oxazol-2-yl)phenoxy)-1H-1,2,3-triazole-4-carboxylic Acid], the IC50 is 100 to 200 nM.

Turning to `O=C(O)c1nn[nH]c1Oc1ccc(-c2cccnc2)cc1` [Example 14, 5-(4-(pyridin-3-yl)phenoxy)-1H-1,2,3-triazole-4-carboxylic Acid], the IC50 lay in the range of 100 to 200 nM.

For the compound `O=C(O)c1nn[nH]c1Oc1ccc(Cl)nc1` [Example 49, 5-((6-chloropyridin-3-yl)oxy)-1H-1,2,3-triazole-4-carboxylic Acid], the IC50 was less than 100 nM.

Turning to `O=C(O)c1nn[nH]c1Oc1ccc(Br)c(Cl)c1` [Example 48, 5-(4-bromo-3-chlorophenoxy)-1H-1,2,3-triazole-4-carboxylic Acid], the IC50 was less than 100 nM.

In the case of `O=C(O)c1nn[nH]c1Oc1ccc(-c2cccnc2F)cc1F` [Example 98, 5-(2-fluoro-4-(2-fluoropyridin-3-yl)phenoxy)-1H-1,2,3-triazole-4-carboxylic Acid], the IC50 was less than 100 nM.

On to `O=C(O)c1nn[nH]c1Oc1ccc(-c2ccccc2OC(F)F)cc1` [Example 28, 5-((2′-(difluoromethoxy)-[1,1′-biphenyl]-4-yl)oxy)-1H-1,2,3-triazole-4-carboxylic Acid], for which the IC50 is 100 to 200 nM.

On to `Cc1ccc(Oc2[nH]nnc2C(=O)O)cc1` [Example 43, 5-(p-tolyloxy)-1H-1,2,3-triazole-4-carboxylic Acid], for which the IC50 lay in the range of 100 to 200 nM.

Regarding `Cc1cc(Oc2[nH]nnc2C(=O)O)ccc1-c1ccc(F)nc1C` [Example 85, 5-(4-(6-fluoro-2-methylpyridin-3-yl)-3-methylphenoxy)-1H-1,2,3-triazole-4-carboxylic Acid], the IC50 fell in the range of 100 to 200 nM.

As to `O=C(O)c1nn[nH]c1Oc1ccc(-c2nccs2)cc1` [Example 25, 5-(4-(thiazol-2-yl)phenoxy)-1H-1,2,3-triazole-4-carboxylic Acid], the IC50 lay in the range of 100 to 200 nM.

Turning to `O=C(O)c1nn[nH]c1Oc1cccnc1F` [Example 57, 5-((2-fluoropyridin-3-yl)oxy)-1H-1,2,3-triazole-4-carboxylic Acid], the IC50 is more than 200 nM.

Take `CC(=O)N1CCN(c2ccc(Oc3[nH]nnc3C(=O)O)cc2)CC1` [Example 3, 5-(4-(4-acetylpiperazin-1-yl)phenoxy)-1H-1,2,3-triazole-4-carboxylic Acid]: the IC50 was more than 200 nM.

For `O=C(O)c1nn[nH]c1Oc1ccc(-c2cccc(OC(F)F)c2)cc1` [Example 40, 5-((3′-(difluoromethoxy)-[1,1′-biphenyl]-4-yl)oxy)-1H-1,2,3-triazole-4-carboxylic Acid], the IC50 is less than 100 nM.

Consider `O=C(O)c1nn[nH]c1Oc1ccc(C(F)(F)F)cc1` [Example 60, 5-(4-(trifluoromethyl)phenoxy)-1H-1,2,3-triazole-4-carboxylic Acid], for which the IC50 was less than 100 nM.
